Results reported in US3954780A, “Propionic acid derivatives” (Innothera, priority 1970, dated 1976).
Converted amounts (≈) assume the structure as drawn. Structures can show the parent of a compound that is named as a salt. Where two headings read alike, the source gives them in different places.

Columns and labels:
isolated rat duodenum = assay: Spasmolytic activity of papaverinic type, barium chloride contracture; conditions: Tyrode 38°; for EC50: read-out: Spasmolytic activity Papaverinic type DE 50 (converted)
Description: a. To show activity of the papaverinic type, the contracturant used is barium chloride acting on the isolated rat duodenum.
The average activity of the substances studied has been effected by determining graphically their DE 30 and DE 50 these being expressed in μg for 20 ml of bath.

[1] = tested on: isolated ileum of the guinea-pig; assay: Spasmolytic activity of atropinic type, acetylcholine chloride contracture; conditions: Tyrode 33°; for EC50: Cavia porcellus, read-out: Spasmolytic activity Atropinic type DE 50 (converted)
From the text: b. To show activity of atropinic type the contracturant used is acetylcholine chloride acting on the isolated ileum of the guinea-pig. […]

[2] = Acute toxicity in the mouse (DL50, method of Miller and Tainter); conditions: in vivo, read-out: DL 50 (the source's name)
From the text: The acute toxicity of the amine ester derivatives of β-[ benzo(b)thienyl-3]propionic acid have been studied in the mouse by intraperitoneal and oral routes, the products being administered in an isotonic solution of sodium chloride, 0.9%, or in suspension in a dilute aqueous solution of carboxymethyl cellulose.
The calculation of the DL50 has been effected according to the method of MILLER and TAINTER (MILLER. L.C., TAINTER M.L. - Proc. Soc. Exptl. Biol. Med. 1944-57-261,264).

skin reflex = assay: Local anaesthetic activity, conduction anaesthesia (method of Moukhtar); assay type: in vivo; conditions: for average number of stimulations for the derivative studied n: intradermal 0.20 ml
From the text: The method of MOUKHTAR has been chosen to show the activity of the derivatives studied on conduction anaesthesia (A. MOUKHTAR, C.R. Soc. Biol. 1909-66-187,189).
The reference local anaesthetic substance used in the tests has in each case been procaine hydrochloride in 0.5% solution in an 0.9% isotonic solution of NaCl. The three concentrations used to study the local anaesthetic activity of the new derivatives are 0.50, 0.25 and 0.10%, the vehicle being the isotonic 0.9% solution of NaCl.
The average anaesthetic activity of the substances chosen is expressed comparatively to that of the reference product chosen, by calculating the ratio of the average number n of the stimulations necessary to obtain the appearance of the skin reflex in the case of the derivatives studied, to the average number (n') of the stimulation determined for the reference substance.
The procaine hydrochloride and the derivatives studied are administered by the intradermal route at the rate of 0.20 ml per injection.

[3] = tested on: acute oedema provoked by serotonine in the rat; assay: Anti-serotonic activity, serotonine-induced acute paw oedema; assay type: in vivo; conditions: 30 minutes before serotonine
Description: This has been researched in the rat by the technique of the acute oedema localised in the metatarsal region, provoked by the injection of 0.05 ml of a 0.01% solution of serotonine (sulphate of 5-hydroxy-tryptamine-creatinine) in an isotonic solution of sodium chloride.
The plethysmometric measurements of the paw having been subjected to the injection have been effected before, and at different times after, the injection of the serotonine.
The derivatives to be studied have been administered by the oral route 30 minutes before the serotonine.

Row | SMILES | Spasmolytic activity Papaverinic type DE 30 (isolated rat duodenum) | EC50 (isolated rat duodenum) [µg/mL] | EC50 [1] [µg/mL] | Spasmolytic activity Atropinic type DE 30 [1] | LD50 ([2]; ip) [mg/kg] | average number of stimulations for the derivative studied n (skin reflex; 0.10 g/100 ml) | average number of stimulations for the derivative studied n (skin reflex; 0.25 g/100 ml) | average number of stimulations for the derivative studied n (skin reflex; 0.50 g/100 ml) | local anaesthetic activity n/n' (skin reflex; derivative 0.10 g/100 ml vs procaine hydrochloride 0.50 g/100 ml) | local anaesthetic activity n/n' (skin reflex; derivative 0.25 g/100 ml vs procaine hydrochloride 0.50 g/100 ml) | local anaesthetic activity n/n' (skin reflex; derivative 0.50 g/100 ml vs procaine hydrochloride 0.50 g/100 ml) | average percentage reduction in oedema after 1 hour ([3]; 50 mg/kg oral) [%] | average percentage reduction in oedema after 2 hours ([3]; 50 mg/kg oral) [%] | LD50 ([2]; v.o. (oral) route) [mg/kg] | average percentage reduction in oedema after 1 hour ([3]; 30 mg/kg oral) [%] | average percentage reduction in oedema after 2 hours ([3]; 30 mg/kg oral) [%]
1 | CCN(CC)CCCOC(=O)C(Cc1cccs1)Cc1csc2ccccc12 (stereo not shown) [Compound 42] | 3.5 μg for 20 ml of bath | 0.85 (≈ 2.05 µM) | 15 (≈ 36.1 µM) | 190 μg/20 ml of bath | 240 ± 18 | – | – | – | – | – | – | – | – | – | – | –
2 | C=CCC(Cc1csc2ccccc12)C(=O)OCCCN(C)C (stereo not shown) [Compound 6] | 9.0 μg for 20 ml of bath | 1 (≈ 3.02 µM) | – | – | ~120 | – | – | – | – | – | – | – | – | – | – | –
3 | O=C(OCCN1CCCCCC1)C(Cc1csc2ccccc12)CC1CCCO1 (stereo not shown) [Compound 51] | 3.5 μg for 20 ml of bath | 0.325 (≈ 0.782 µM) | 4.75 (≈ 11.4 µM) | 61 μg/20 ml of bath | 121 ± 10 | – | – | – | – | – | – | – | – | – | – | –
4 | C=CCC(Cc1csc2ccccc12)C(=O)OCCCN(CC)CC (stereo not drawn) [Compound 7, citrate of the N,N-diethylamino propyl esters of x-allyl-β-[benzo(b)thienyl-3]propionic acid] | 2.2 μg for 20 ml of bath | 0.225 | 16.2 | 170 μg/20 ml of bath | 210 ± 10 | 12.2 | 18.9 | 29.5 | 0.3 | 0.6 | 1.0 | 27.6 | 36.6 | 1290 ± 80 | – | –
5 | O=C(OCCCN1CCCC1)C(Cc1cccs1)Cc1csc2ccccc12 (stereo not shown) [Compound 43] | 7.0 μg for 20 ml of bath | 1.25 (≈ 3.02 µM) | – | – | 160 ± 11 | – | – | – | – | – | – | – | – | – | – | –
6 | C=CCC(Cc1csc2ccccc12)C(=O)OCCN1CCCCCC1 (stereo not shown) [Compound 5] | 13.0 μg for 20 ml of bath | 1 (≈ 2.69 µM) | 9 (≈ 24.2 µM) | 95 μg/20 ml of bath | 150 ± 17 | – | – | – | – | – | – | – | – | – | – | –
7 | O=C(OCCN1CCCC1)C(Cc1csc2ccccc12)CC1CCCO1 (stereo not shown) [Compound 49] | 1.6 μg for 20 ml of bath | 0.185 (≈ 0.477 µM) | 1.4 (≈ 3.61 µM) | 21 μg/20 ml of bath | 140 ± 9 | – | – | – | – | – | – | – | – | ~650 | 17.8 | 12.6
